These are literature values, as cited in patent US9540355B2, “Irciniastatin analogues” (priority 2013, dated 2017).

Data set [1] has as its system HT29. To be noted: colon cancer HT29; read-out: LC50 (the source's name); cited from earlier work.
Data set [2] deals with CCRF-CEM. To be noted: leukemia CCRF-CEM; cited from earlier work.
Data set [3] has as its system RPMI-8226. To be noted: leukemia RPMI-8226; read-out: LC50 (the source's name); cited from earlier work.
Data set [4] has as its system human umbilical vein endothelial cells (HUVEC). To be noted: normal endothelial HUVEC; cited from earlier work.
In data set [5] the test system is LOX IMVI. To be noted: melanoma LOX IMVI; read-out: LC50 (the source's name); cited from earlier work.
Data set [6] deals with MALME-3M. To be noted: melanoma MALME-3M; read-out: LC50 (the source's name); cited from earlier work.
Data set [7] relates to SR. To be noted: leukemia SR; read-out: LC50 (the source's name); cited from earlier work.
The test system of data set [8] is UACC-62. To be noted: melanoma UACC-62; read-out: LC50 (the source's name); cited from earlier work.
Data set [9] deals with SK-MEL-2. To be noted: melanoma SK-MEL-2; read-out: LC50 (the source's name); cited from earlier work.
Data set [10] relates to panel of 60 human cancer cell lines. To be noted: cited from earlier work.

As for `C=C(C)C[C@H](OC)[C@H](O)C(=O)N[C@@H](OC)[C@@H]1C[C@@H](O)C(C)(C)[C@@H](C[C@H](O)[C@@H](C)[C@H]2Cc3c(C)c(O)cc(O)c3C(=O)O2)O1` [Irciniastatin A, (+)-Irciniastatin A], the CC50 is > 25 µM in data set [1]; > 25 µM in data set [3]; > 25 µM in data set [5]; < 0.0025 µM in [6]; > 25 µM in data set [7]; < 0.0025 µM in data set [8]. In addition, the CC50 in data set [9] is > 25 µM. In data set [2], the median lethal concentration (LC50) – broadly, the concentration lethal to half of the exposed cells or organisms – was > 25 µM. In addition, in [4], the “Growth Inhibition of Cancer Cell Lines (GI50)” value was <0.5 ng/mL. The “activity differential as compared to other cell lines within their respective subsets” value in [10] (MDA-MB-35, SK-MEL-28, UACC-62, HCT-116 versus other lines of the subset) is reported as “greater than 10,000 fold”. Also, in [10] (MDA-MB-35 breast cancer, SK-MEL-28 and UACC-62 melanoma, HCT-116 colon cancer cell lines), the activities entry is given as “low nanomolar range”.
